According to US20140093457A1, “Compositions, methods and kits for remineralization and inhibition of dental caries in teeth” (President and Fellows of Harvard College, priority 2010, published 2014):
“Also recorded” adds a separate entry of the source.

Assay: RFU comparison of solutions to release OsteoSense 750 from HA
[1] = 1% solution with calcium chloride (1%), room temperature
[2] = 1% solution, 15 minutes at 37° C.
[3] = 1% solution, pH 6.5, room temperature
[4] = 5% solution with calcium chloride (1%), room temperature
[5] = 5% solution, 15 minutes at 37° C.
[6] = 5% solution, pH 6.5, room temperature
[7] = 10% solution with calcium chloride (1%), room temperature
[8] = 10% solution, 15 minutes at 37° C.
[9] = 10% solution, pH 6.5, room temperature
[10] = 20% solution, 15 minutes at 37° C.
[11] = 20% solution with calcium chloride (1%), room temperature
[12] = 20% solution, pH 6.5, room temperature

Procedure: Variables included conditions of pH, temperature, and presence of 1% calcium chloride.
Three conditions were tested: incubation for 15 minutes at 37° C. after vortexing; adjusting pH to 6.5 at 23° C. after vortexing; and addition of 1% calcium chloride to each solution and incubation at room temperature after vortexing.

Row | SMILES | % released of total OsteoSense [1] | % released of total reference value [1] | Raw RFU value [1] | % released of total OsteoSense [2] | % released of total reference value [2] | Raw RFU value [2] | % released of total OsteoSense [3] | % released of total reference value [3] | Raw RFU value [3] | % released of total OsteoSense [4] | % released of total reference value [4] | Raw RFU value [4] | % released of total OsteoSense [5] | % released of total reference value [5] | Raw RFU value [5] | % released of total OsteoSense [6] | % released of total reference value [6] | Raw RFU value [6] | % released of total OsteoSense [7] | % released of total reference value [7] | also measured
1 | O=P(O)(O)CP(=O)(O)O [methylene phosphoric acid (MDP), methylene phosphoric acid] | 1.45% | 1.54% | 0.54 RFU | 2.49% | 2.11% | 0.93 RFU | 3.59% | 2.50% | 1.35 RFU | 23.89% | 32.07% | 8.96 RFU | 34.33% | 30.09% | 12.88 RFU | 35.61% | 27.41% | 13.35 RFU | 34.23% | 37.57% | Raw RFU value [7]: 12.83 RFU; % released of total OsteoSense [8]: 56.56%; % released of total reference value [8]: 55.84%; Raw RFU value [8]: 21.21 RFU; % released of total OsteoSense [9]: 59.77%; % released of total reference value [9]: 41.32%; Raw RFU value [9]: 22.41 RFU; % released of total OsteoSense [10]: −0.13%; Raw RFU value [10]: −0.05 RFU; relative efficacy in removing OsteoSense 750 from HA (compared with the other agents): remove more OsteoSense 750 from HA than sodium phosphate monobasic or sodium phosphate dibasic at each concentration; also recorded: generally most effective for removing OsteoSense 750
2 | O=P([O-])([O-])O.[Na+].[Na+] [sodium phosphate dibasic (D), sodium phosphate dibasic] | 0.01% | 0.02% | 0.00 RFU | 2.97% | 2.30% | 1.11 RFU | 1.81% | 2.08% | 0.68 RFU | 4.67% | 4.11% | 1.75 RFU | 14.21% | 13.12% | 5.33 RFU | 14.64% | 14.63% | 5.49 RFU | 4.90% | 5.28% | Raw RFU value [7]: 1.84 RFU; % released of total OsteoSense [8]: 27.90%; % released of total reference value [8]: 31.69%; Raw RFU value [8]: 10.46 RFU; % released of total OsteoSense [9]: 25.75%; % released of total reference value [9]: 21.10%; Raw RFU value [9]: 9.66 RFU; % released of total OsteoSense [11]: 14.02%; % released of total reference value [11]: 29.08%; Raw RFU value [11]: 5.26 RFU; % released of total OsteoSense [10]: 35.48%; % released of total reference value [10]: 27.01%; Raw RFU value [10]: 13.30 RFU; % released of total OsteoSense [12]: 56.19%; % released of total reference value [12]: 55.57%; Raw RFU value [12]: 21.07 RFU
